{"source": "ChEMBL document CHEMBL4414679", "about": "“Discovery of 4,6-pyrimidinediamine derivatives as novel dual EGFR/FGFR inhibitors aimed EGFR/FGFR1-positive NSCLC” (Eur J Med Chem, 2020)", "key": {"NCI-H226 [1]": {"system": "NCI-H226", "experiment": "Inhibition of colony formation in human NCI-H226 cells measured after 24 hrs by crystal violet staining based assay", "assay_type": "functional, cell-based"}, "[2]": {"target": "T1, Fibroblast growth factor receptor 1 (Homo sapiens, UniProt P11362)", "T1 sequence (P11362 22-822 limits assumed)": "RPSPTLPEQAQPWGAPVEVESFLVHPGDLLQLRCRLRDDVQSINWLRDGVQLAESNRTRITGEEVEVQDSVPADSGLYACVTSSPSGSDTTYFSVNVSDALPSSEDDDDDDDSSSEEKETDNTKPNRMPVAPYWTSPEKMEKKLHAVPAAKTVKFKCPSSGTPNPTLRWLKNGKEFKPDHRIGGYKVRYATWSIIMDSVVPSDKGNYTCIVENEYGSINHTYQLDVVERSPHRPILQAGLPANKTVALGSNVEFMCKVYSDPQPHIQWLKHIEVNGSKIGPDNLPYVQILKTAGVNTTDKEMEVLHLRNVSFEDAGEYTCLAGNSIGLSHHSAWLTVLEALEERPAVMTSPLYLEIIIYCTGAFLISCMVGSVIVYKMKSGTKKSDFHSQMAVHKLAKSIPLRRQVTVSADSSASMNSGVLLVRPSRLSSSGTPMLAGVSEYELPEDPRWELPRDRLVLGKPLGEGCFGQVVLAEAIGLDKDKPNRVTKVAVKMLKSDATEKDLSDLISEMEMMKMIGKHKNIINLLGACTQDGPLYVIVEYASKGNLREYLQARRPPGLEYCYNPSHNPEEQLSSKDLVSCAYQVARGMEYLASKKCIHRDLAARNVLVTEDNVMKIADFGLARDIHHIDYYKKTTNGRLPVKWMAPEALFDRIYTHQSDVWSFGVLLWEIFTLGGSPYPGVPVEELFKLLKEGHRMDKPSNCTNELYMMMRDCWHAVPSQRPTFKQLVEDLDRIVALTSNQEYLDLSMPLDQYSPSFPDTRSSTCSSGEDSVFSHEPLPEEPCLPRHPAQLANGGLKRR", "experiment": "Inhibition of N-terminal GST-tagged human FGFR1 expressed in baculovirus at 10 uM using FAM-labelled peptide as substrate pre-incubated for 10 mins followed by substrate addition by mobility shift assay relative to control"}, "[3]": {"target": "T1, Fibroblast growth factor receptor 1", "experiment": "Inhibition of N-terminal GST-tagged human FGFR1 cytoplasmic domain (398-822 AA) expressed in baculovirus at 10 uM using FAM-labelled peptide as substrate pre-incubated for 10 mins followed by substrate addition by mobility shift assay relative to control"}, "[4]": {"experiment": "Volume of distribution in Sprague-Dawley rat at 30 mg/kg, po measured upto 24 hrs by UPLC-MS/MS", "assay_type": "ADME, organism-based", "details": "in vivo"}, "[5]": {"target": "CDK4/Cyclin D3 (Homo sapiens) (UniProt P11802+P30281)", "experiment": "Inhibition of N-terminal GST tagged truncated human CDK4 (1 to 303 AA) coexpressed with CyclinD3 (1 to 292 AA) in baculovirus at 10 uM using FAM-labelled peptide as substrate pre-incubated for 10 mins followed by substrate addition by mobility shift assay relative to control", "assay_type": "protein-complex assay"}, "[6]": {"experiment": "Induction of apoptosis in gefitinib-insensitive human HCC827GR cells assessed as viable cells at 2.5 uM measured after 24 hrs by Annexin-V/propidium iodide staining-based flow cytometric analysis (reference value: 90.8%)", "assay_type": "functional", "details": "read-out: Activity"}, "NCI-H226 [7]": {"system": "NCI-H226", "experiment": "Induction of apoptosis in human NCI-H226 cells assessed as late apoptotic cells at 10 uM measured after 24 hrs by Annexin-V/propidium iodide staining-based flow cytometric analysis (reference value: 2.8%)", "assay_type": "functional"}, "[8]": {"experiment": "Induction of apoptosis in gefitinib-insensitive human HCC827GR cells assessed as late apoptotic cells at 2.5 uM measured after 24 hrs by Annexin-V/propidium iodide staining-based flow cytometric analysis (reference value: 1.5%)", "assay_type": "functional"}, "[9]": {"target": "Platelet-derived growth factor receptor alpha (Homo sapiens) (UniProt P16234)", "sequence (P16234 whole entry, the tested form may be a part)": "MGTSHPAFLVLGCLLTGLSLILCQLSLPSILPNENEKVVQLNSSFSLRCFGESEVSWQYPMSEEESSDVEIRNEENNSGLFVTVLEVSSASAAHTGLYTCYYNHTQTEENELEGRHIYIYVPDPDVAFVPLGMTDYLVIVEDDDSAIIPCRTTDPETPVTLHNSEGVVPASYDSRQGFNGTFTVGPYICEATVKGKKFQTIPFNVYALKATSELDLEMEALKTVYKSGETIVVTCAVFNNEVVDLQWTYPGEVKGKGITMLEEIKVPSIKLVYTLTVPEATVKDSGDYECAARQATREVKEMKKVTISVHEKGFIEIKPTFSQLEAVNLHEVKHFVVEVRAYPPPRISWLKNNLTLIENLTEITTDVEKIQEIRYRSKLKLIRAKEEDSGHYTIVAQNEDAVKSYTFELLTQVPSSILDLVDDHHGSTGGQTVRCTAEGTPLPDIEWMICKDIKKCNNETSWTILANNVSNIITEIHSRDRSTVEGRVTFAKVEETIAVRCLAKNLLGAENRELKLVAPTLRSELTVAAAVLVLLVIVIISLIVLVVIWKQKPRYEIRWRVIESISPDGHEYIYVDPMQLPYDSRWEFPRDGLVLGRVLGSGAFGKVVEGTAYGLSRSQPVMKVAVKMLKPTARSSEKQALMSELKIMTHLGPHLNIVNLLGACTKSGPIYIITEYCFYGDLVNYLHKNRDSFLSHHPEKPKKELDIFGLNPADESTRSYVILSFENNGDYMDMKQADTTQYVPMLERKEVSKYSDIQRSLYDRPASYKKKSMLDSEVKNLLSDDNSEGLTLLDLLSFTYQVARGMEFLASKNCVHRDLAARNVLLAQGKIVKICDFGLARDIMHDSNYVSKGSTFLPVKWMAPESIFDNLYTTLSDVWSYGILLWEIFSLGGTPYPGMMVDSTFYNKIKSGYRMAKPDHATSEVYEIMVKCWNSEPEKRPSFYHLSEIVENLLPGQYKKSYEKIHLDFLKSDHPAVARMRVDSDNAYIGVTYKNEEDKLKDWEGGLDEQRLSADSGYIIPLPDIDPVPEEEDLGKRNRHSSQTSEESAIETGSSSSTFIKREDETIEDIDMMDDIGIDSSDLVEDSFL", "experiment": "Inhibition of N-terminal GST tagged human PDGFRalpha cytoplasmic domain (550 to 1089 AA) expressed in baculovirus at 10 uM using FAM-labelled peptide as substrate pre-incubated for 10 mins followed by substrate addition by mobility shift assay relative to control"}, "[10]": {"target": "T1, Fibroblast growth factor receptor 1", "experiment": "Inhibition of FGF-induced FGFR1 phosphorylation in serum-starved human H520 cells upto 10 uM incubated for 1 hr by Western blot analysis"}, "[11]": {"target": "T2, Epidermal growth factor receptor (Homo sapiens, UniProt P00533)", "T2 sequence (P00533 whole entry)": "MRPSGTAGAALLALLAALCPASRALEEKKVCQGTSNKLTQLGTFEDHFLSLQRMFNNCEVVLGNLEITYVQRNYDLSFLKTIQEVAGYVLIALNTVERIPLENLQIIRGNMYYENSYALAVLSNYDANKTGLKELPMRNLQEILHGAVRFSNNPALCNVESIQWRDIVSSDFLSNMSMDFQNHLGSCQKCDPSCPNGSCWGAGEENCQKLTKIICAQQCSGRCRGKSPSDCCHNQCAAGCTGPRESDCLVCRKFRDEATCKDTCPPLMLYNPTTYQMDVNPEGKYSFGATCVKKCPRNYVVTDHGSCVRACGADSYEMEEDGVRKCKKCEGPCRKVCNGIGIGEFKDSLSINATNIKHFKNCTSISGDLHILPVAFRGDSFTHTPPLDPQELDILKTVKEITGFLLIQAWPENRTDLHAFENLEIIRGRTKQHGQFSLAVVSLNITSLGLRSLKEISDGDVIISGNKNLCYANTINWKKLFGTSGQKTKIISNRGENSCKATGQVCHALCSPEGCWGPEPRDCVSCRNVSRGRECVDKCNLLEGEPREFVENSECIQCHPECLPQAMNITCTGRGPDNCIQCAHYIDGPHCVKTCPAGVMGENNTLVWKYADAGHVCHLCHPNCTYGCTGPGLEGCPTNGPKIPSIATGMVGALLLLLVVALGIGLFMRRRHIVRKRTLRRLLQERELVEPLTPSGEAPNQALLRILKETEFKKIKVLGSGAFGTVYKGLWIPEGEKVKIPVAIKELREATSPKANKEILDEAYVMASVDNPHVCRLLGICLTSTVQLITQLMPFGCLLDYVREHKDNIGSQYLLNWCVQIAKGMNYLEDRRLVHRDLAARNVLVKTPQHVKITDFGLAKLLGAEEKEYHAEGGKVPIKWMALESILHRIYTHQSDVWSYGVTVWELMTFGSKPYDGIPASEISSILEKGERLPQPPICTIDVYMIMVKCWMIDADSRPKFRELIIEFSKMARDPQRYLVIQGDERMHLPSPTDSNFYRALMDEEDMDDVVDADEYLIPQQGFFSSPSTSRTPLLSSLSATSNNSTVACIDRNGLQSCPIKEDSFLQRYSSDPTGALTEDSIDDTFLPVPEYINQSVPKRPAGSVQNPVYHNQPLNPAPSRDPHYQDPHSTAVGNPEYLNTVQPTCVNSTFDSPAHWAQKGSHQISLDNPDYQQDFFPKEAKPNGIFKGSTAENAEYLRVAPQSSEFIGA", "experiment": "Inhibition of EGFR in gefitinib-insensitive human HCC827GR cells assessed as reduction in EGF-induced Akt phosphorylation upto 10 uM measured after 2 hrs by western blot analysis"}, "[12]": {"target": "Mitogen-activated protein kinase 1 (Homo sapiens) (UniProt P28482)", "sequence (P28482 whole entry, the tested form may be a part)": "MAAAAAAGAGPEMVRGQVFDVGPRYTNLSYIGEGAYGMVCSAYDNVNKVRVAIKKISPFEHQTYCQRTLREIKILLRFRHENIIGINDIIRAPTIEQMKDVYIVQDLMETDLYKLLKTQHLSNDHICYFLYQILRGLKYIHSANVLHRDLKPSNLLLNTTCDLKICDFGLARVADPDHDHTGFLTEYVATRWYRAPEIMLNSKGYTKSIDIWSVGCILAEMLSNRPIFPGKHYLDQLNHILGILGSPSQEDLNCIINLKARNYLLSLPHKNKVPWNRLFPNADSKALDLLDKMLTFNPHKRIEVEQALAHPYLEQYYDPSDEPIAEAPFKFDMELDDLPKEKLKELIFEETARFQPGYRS", "experiment": "Inhibition of full length N-terminal GST-tagged human ERK2 (1 to 360 AA) expressed in Escherichia coli at 10 uM using FAM-labelled peptide as substrate pre-incubated for 10 mins followed by substrate addition by mobility shift assay relative to control"}, "[13]": {"target": "T2, Epidermal growth factor receptor", "experiment": "Inhibition of EGFR in human PC9 cells assessed as reduction in EGF-induced AKT phosphorylation upto 10 uM incubated for 1 hr by Western blot analysis", "assay_type": "cell-based"}, "[14]": {"experiment": "AUC (0 to 24 hrs) in Sprague-Dawley rat at 30 mg/kg, po measured upto 24 hrs by UPLC-MS/MS", "assay_type": "ADME, organism-based", "set-up": "time < 24 hr, dose 30 mg/kg, route oral", "details": "in vivo"}}, "note": "Calls of active or inactive are those of the source. No cut-off for these calls is given here."}
{"smiles": "COc1ccc(OC)c(Nc2cc(NC(=O)Nc3c(Cl)cccc3Cl)ncn2)c1", "values": [{"measurement": "inhibition", "setting": "NCI-H226 [1]", "value": "Dose-dependent effect"}, {"measurement": "inhibition", "setting": "[2]", "value": 85.2, "unit": "%"}, {"measurement": "inhibition", "setting": "[3]", "value": 88.5, "unit": "%"}, {"measurement": "Vd", "setting": "[4]", "value": 0.03, "unit": "L/kg"}, {"measurement": "inhibition", "setting": "[5]", "value": 12.5, "unit": "%"}, {"measurement": "viability at 2.5 µM", "setting": "[6]", "value": 79.5, "unit": "%"}, {"measurement": "Activity", "setting": "NCI-H226 [7]", "value": 11.9, "unit": "%"}, {"measurement": "Activity", "setting": "[8]", "value": 13.5, "unit": "%"}, {"measurement": "inhibition", "setting": "[9]", "value": 48.1, "unit": "%"}, {"measurement": "inhibition", "setting": "[10]", "value": "Active"}, {"measurement": "inhibition", "setting": "[11]", "value": "Active"}, {"measurement": "inhibition", "setting": "[12]", "value": 9.1, "unit": "%"}, {"measurement": "inhibition", "setting": "[13]", "value": "Active"}, {"measurement": "AUC(0-t) at 24 h", "setting": "[14]", "value": 9690, "unit": "ng·h/mL"}]}
